Laboratory results from US9474758B2, “Thienopyrimidinedione derivatives as TRPA1 modulators” (Glenmark Pharmaceuticals S.A., priority 2009, dated 2016).
Like-named read-outs stand apart in the source and are kept apart here.

Columns and labels:
[1] = biological target: T1, Human TRPA1 expressing CHO cells (Homo sapiens, UniProt O75762); experiment: 45Calcium uptake assay, inhibition of AITC induced calcium uptake (human); type: cell-based; conditions: for inhibition at 1 µM: read-out: Percentage inhibition at 1.0 μM; for inhibition at 10 µM: read-out: Percentage inhibition at 10.0 μM
T1 construct: expressed in transfected cells; host or cells: CHO cells (G-418 selection)
Experimental: (§1) Screening for TRPA1 Antagonist Using the ^45Calcium Uptake Assay:
(§2) The inhibition of TRPA1 receptor activation was measured as inhibition of allyl isothiocyanate (AITC) induced cellular uptake of radioactive calcium.
(§3) Test compounds were dissolved in 100% DMSO to prepare 10 mM stock and then diluted using plain medium with 0.1% BSA and 1.8 mM CaCl2 to get the desired concentration. The final concentration of DMSO in the reaction was 0.5% (v/v). […] Rat TRPA1 expressing CHO cells were grown in F-12 DMEM medium with 10% FBS, 1% penicillin-streptomycin solution, and 400 μg/ml of Zeocin. […] Cells were treated with the test compounds for 10 minutes followed by the addition of AITC at a final concentration of 30 μM (for human TRPA1) and/or 10 μM (for rat TRPA1) and 5 μCi/ml ^45Ca^+2 for 3 minutes. Cells were washed and lysed using a buffer containing 1% Triton X-100, 0.1% deoxycholate and 0.1% SDS. Radioactivity in the lysate was measured in a Packard TopCount after addition of liquid scintillant.
(§4) Concentration response curves were plotted as a % of maximal response obtained in the absence of test antagonist. IC50 values can be calculated from concentration response curve by nonlinear regression analysis using GraphPad PRISM software.

[2] = biological target: T2, Rat TRPA1 expressing CHO cells (Rattus norvegicus, UniProt Q6RI86); experiment: 45Calcium uptake assay, inhibition of AITC induced calcium uptake (rat); type: cell-based; conditions: for inhibition at 1 µM: read-out: Percentage inhibition at 1.0 μM; for inhibition at 10 µM: read-out: Percentage inhibition at 10.0 μM; for IC50: read-out: Rat IC50 value (Range)
T2 construct: expressed in transfected cells; host or cells: CHO cells (Zeocin selection)
Experimental: as §1, §2, §3, §4

[3] = human TRPA1 CHO cells, AITC 30 μM, compound 1.0 μM
[4] = human TRPA1 CHO cells, AITC 30 μM, compound 10.0 μM
[5] = rat TRPA1 CHO cells, AITC 10 μM, compound 1.0 μM
[6] = rat TRPA1 CHO cells, AITC 10 μM, compound 10.0 μM
[7] = human TRPA1 CHO cells, AITC 30 μM, read-out: Human IC50 value (Range)
[8] = rat TRPA1 CHO cells, AITC 10 μM

T1 sequence (O75762 whole entry): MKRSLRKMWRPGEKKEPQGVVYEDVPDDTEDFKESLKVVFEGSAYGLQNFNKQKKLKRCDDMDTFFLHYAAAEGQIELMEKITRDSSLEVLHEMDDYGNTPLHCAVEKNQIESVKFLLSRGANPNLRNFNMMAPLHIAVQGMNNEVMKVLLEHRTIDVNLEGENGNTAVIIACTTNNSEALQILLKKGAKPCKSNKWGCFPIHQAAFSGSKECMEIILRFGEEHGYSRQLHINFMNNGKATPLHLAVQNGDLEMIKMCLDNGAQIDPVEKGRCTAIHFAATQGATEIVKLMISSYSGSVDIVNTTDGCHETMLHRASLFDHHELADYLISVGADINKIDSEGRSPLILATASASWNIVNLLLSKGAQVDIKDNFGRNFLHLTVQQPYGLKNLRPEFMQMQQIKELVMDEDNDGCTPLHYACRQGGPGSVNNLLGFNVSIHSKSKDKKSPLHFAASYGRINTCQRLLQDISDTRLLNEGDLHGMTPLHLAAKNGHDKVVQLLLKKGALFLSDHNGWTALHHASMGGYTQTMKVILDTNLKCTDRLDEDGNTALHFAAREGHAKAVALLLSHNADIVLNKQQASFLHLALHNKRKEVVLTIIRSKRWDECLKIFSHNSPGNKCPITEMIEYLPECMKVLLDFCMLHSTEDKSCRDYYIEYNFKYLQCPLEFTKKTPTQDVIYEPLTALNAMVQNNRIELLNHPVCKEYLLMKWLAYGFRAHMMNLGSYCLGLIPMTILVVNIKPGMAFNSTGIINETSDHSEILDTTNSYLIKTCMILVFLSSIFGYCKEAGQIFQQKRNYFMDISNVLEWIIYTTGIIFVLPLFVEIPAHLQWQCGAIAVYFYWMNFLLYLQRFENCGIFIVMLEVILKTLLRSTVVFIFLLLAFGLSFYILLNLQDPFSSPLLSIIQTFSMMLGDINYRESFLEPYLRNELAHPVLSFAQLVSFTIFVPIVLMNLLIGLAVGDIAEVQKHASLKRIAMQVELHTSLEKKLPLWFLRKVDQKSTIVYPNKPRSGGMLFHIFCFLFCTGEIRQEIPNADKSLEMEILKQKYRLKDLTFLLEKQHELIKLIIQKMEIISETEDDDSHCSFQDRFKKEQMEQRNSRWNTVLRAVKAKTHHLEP
T2 sequence (Q6RI86 whole entry): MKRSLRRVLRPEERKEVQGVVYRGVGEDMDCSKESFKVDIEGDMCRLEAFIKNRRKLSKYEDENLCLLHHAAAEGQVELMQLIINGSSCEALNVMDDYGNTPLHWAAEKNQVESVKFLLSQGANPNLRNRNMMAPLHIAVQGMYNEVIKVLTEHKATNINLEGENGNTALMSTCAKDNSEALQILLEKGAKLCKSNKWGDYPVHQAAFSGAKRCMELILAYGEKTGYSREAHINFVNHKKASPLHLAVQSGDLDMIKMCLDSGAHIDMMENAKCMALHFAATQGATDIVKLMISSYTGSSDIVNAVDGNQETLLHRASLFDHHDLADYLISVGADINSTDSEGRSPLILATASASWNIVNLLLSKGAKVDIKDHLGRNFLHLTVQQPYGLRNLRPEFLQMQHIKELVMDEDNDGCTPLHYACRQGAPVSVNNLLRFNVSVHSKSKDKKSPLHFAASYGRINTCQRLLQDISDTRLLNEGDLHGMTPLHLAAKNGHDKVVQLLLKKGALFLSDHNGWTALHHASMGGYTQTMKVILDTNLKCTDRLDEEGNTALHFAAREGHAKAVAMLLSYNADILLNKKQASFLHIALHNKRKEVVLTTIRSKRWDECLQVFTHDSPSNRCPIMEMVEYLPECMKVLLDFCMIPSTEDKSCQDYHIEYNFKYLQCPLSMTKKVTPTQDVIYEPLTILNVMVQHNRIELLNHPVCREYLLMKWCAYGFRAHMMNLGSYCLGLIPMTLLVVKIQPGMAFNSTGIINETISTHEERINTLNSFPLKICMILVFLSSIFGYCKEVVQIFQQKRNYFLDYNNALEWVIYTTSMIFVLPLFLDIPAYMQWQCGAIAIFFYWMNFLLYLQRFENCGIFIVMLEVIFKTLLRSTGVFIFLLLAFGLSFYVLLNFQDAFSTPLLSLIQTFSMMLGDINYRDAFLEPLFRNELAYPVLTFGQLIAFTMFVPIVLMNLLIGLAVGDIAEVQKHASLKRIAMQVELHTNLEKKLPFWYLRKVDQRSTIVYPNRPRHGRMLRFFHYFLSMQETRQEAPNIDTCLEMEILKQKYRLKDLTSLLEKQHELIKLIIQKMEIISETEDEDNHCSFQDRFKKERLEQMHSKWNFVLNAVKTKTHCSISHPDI

Structure (SMILES)	inhibition at 1 µM [1, 3] [%]	inhibition at 10 µM [1, 4] [%]	inhibition at 1 µM [2, 5] [%]	inhibition at 10 µM [2, 6] [%]	IC50 [1, 7] [nM]	IC50 [2, 8] [nM]	inhibition at 1 µM ([2]; CHO) [%]	inhibition at 10 µM ([2]; CHO) [%]	IC50 [1] [nM]	inhibition at 1 µM ([1]; CHO) [%]	inhibition at 10 µM ([1]; CHO) [%]
Cn1c(=O)c2c(CC(=O)Nc3nc(C(F)(F)F)cs3)csc2n(C)c1=O [Example 1, 2-(1,3-Dimethyl-2,4-dioxo-1,2,3,4-tetrahydrothieno[2,3-d]pyrimidin-5-yl)-N-[4-(trifluoromethyl)-1,3-thiazol-2-yl]acetamide]	13.2	46	–	–	–	–	–	–	–	–	–
Cn1c(=O)c2c(CC(=O)Nc3nc(-c4ccc(Cl)cc4)cs3)csc2n(C)c1=O [Example 2, N-[4-(4-Chlorophenyl)-1,3-thiazol-2-yl]-2-(1,3-dimethyl-2,4-dioxo-1,2,3,4-tetrahydrothieno[2,3-d]pyrimidin-5-yl)acetamide]	99	98.8	91.4	99.3	50 to 500	–	–	–	–	–	–
Cn1c(=O)c2c(CC(=O)Nc3nc(-c4cccc(OC(F)(F)F)c4)cs3)csc2n(C)c1=O [Example 3, 2-(1,3-Dimethyl-2,4-dioxo-1,2,3,4-tetrahydrothieno[2,3-d]pyrimidin-5-yl)-N-{4-[3-(trifluoromethoxy)phenyl]-1,3-thiazol-2-yl}acetamide]	89	98.5	82.4	99.7	50 to 500	–	–	–	–	–	–
CC(C)Cc1ccc(-c2csc(NC(=O)Cc3csc4c3c(=O)n(C)c(=O)n4C)n2)cc1 [Example 4, 2-(1,3-Dimethyl-2,4-dioxo-1,2,3,4-tetrahydrothieno[2,3-d]pyrimidin-5-yl)-N-[4-(4-isobutylphenyl)-1,3-thiazol-2-yl]acetamide]	29.1	99.5	–	–	–	–	–	–	–	–	–
Cn1c(=O)c2c(CC(=O)Nc3nc(-c4ccc(C(F)(F)F)c(F)c4)cs3)csc2n(C)c1=O [Example 5, 2-(1,3-Dimethyl-2,4-dioxo-1,2,3,4-tetrahydrothieno[2,3-d]pyrimidin-5-yl)-N-{4-[3-fluoro-4-(trifluoromethyl)phenyl]-1,3-thiazol-2-yl}acetamide]	95.3	99.9	–	–	< 50	< 50	–	–	–	–	–
Cn1c(=O)c2c(CC(=O)Nc3nc(-c4ccc(F)c(C(F)(F)F)c4)cs3)csc2n(C)c1=O [Example 6, 2-(1,3-Dimethyl-2,4-dioxo-1,2,3,4-tetrahydrothieno[2,3-d]pyrimidin-5-yl)-N-{4-[4-fluoro-3-(trifluoromethyl)phenyl]-1,3-thiazol-2-yl}acetamide]	100	100	99.7	99.9	< 50	50 to 500	–	–	–	–	–
Cn1c(=O)c2c(CC(=O)Nc3nc(-c4ccc(C(F)(F)F)cc4F)cs3)csc2n(C)c1=O [Example 7, 2-(1,3-Dimethyl-2,4-dioxo-1,2,3,4-tetrahydrothieno[2,3-d]pyrimidin-5-yl)-N-{4-[2-fluoro-4-(trifluoromethyl)phenyl]-1,3-thiazol-2-yl}acetamide]	–	–	–	–	–	–	26.6	100	< 50	80.4	99.8
Cn1c(=O)c2c(CC(=O)Nc3nc(-c4cc(F)cc(C(F)(F)F)c4)cs3)csc2n(C)c1=O [Example 8, 2-(1,3-Dimethyl-2,4-dioxo-1,2,3,4-tetrahydrothieno[2,3-d]pyrimidin-5-yl)-N-{4-[3-fluoro-5-(trifluoromethyl)phenyl]-1,3-thiazol-2-yl}acetamide]	89.8	99.9	95.5	100	< 50	50 to 500	–	–	–	–	–
Cn1c(=O)c2c(CC(=O)Nc3nc(-c4cccc(C(F)(F)F)c4F)cs3)csc2n(C)c1=O [Example 9, 2-(1,3-Dimethyl-2,4-dioxo-1,2,3,4-tetrahydrothieno[2,3-d]pyrimidin-5-yl)-N-{4-[2-fluoro-3-(trifluoromethyl)phenyl]-1,3-thiazol-2-yl}acetamide]	99.2	98.4	100	100	< 50	50 to 500	–	–	–	–	–
Cn1c(=O)c2c(CC(=O)Nc3nc(-c4ccc(F)c(OC(F)(F)F)c4)cs3)csc2n(C)c1=O [Example 10, 2-(1,3-Dimethyl-2,4-dioxo-1,2,3,4-tetrahydrothieno[2,3-d]pyrimidin-5-yl)-N-{4-[4-fluoro-3-(trifluoromethoxy)phenyl]-1,3-thiazol-2-yl}acetamide]	98.2	99.5	96.1	100	< 50	50 to 500	–	–	–	–	–
Cn1c(=O)c2c(CC(=O)Nc3nc(-c4ccc(OC(F)(F)F)c(F)c4)cs3)csc2n(C)c1=O [Example 11, 2-(1,3-Dimethyl-2,4-dioxo-1,2,3,4-tetrahydrothieno[2,3-d]pyrimidin-5-yl)-N-{4-[3-fluoro-4-(trifluoromethoxy)phenyl]-1,3-thiazol-2-yl}acetamide]	98.6	97.1	98.8	99.8	< 50	< 50	–	–	–	–	–
Cn1c(=O)c2c(CC(=O)Nc3nc(-c4ccc(Cl)c(Cl)c4)cs3)csc2n(C)c1=O [Example 12, N-[4-(3,4-Dichlorophenyl)-1,3-thiazol-2-yl]-2-(1,3-dimethyl-2,4-dioxo-1,2,3,4-tetrahydrothieno[2,3-d]pyrimidin-5-yl)acetamide]	99.7	99.8	97.8	100	< 50	50 to 500	–	–	–	–	–
Cn1c(=O)c2c(CC(=O)Nc3nc(-c4ccc(C(F)(F)F)c(F)c4F)cs3)csc2n(C)c1=O [Example 15, N-{4-[2,3-Difluoro-4-(trifluoromethyl)phenyl]-1,3-thiazol-2-yl}-2-(1,3-dimethyl-2,4-dioxo-1,2,3,4-tetrahydrothieno[2,3-d]pyrimidin-5-yl)acetamide]	60	96.8	–	–	–	–	–	–	–	–	–
Cc1sc2c(c1CC(=O)Nc1nc(-c3cccc(OC(F)(F)F)c3)c[nH]1)c(=O)n(C)c(=O)n2C [Example 28, N-[4-(3-Trifluoromethoxyphenyl)-1H-imidazol-2-yl]-2-(1,3,6-trimethyl-2,4-dioxo-1,2,3,4-tetrahydrothieno[2,3-d]pyrimidin-5-yl)acetamide]	10	46.8	–	–	–	–	–	–	–	–	–
Cc1sc2c(c1CC(=O)Nc1nc(-c3ccc(C(F)(F)F)c(F)c3)c[nH]1)c(=O)n(C)c(=O)n2C [Example 29, N-{4-[3-Fluoro-4-(trifluoromethyl)phenyl]-1H-imidazol-2-yl}-2-(1,3,6-trimethyl-2,4-dioxo-1,2,3,4-tetrahydrothieno[2,3-d]pyrimidin-5-yl)acetamide]	91.7	98	–	–	50 to 500	–	–	–	–	–	–
Cn1c(=O)c2c(CC(=O)Nc3cc(-c4ccc(Cl)cc4)no3)csc2n(C)c1=O [Example 38, N-[3-(4-Chlorophenyl)isoxazol-5-yl]-2-(1,3-dimethyl-2,4-dioxo-1,2,3,4-tetrahydrothieno[2,3-d]pyrimidin-5-yl)acetamide]	25	87.9	–	–	–	–	–	–	–	–	–
Cn1c(=O)c2c(CC(=O)Nc3cc(-c4ccc(Br)cc4)on3)csc2n(C)c1=O [Example 39, N-[5-(4-Bromophenyl)isoxazol-3-yl]-2-(1,3-dimethyl-2,4-dioxo-1,2,3,4-tetrahydrothieno[2,3-d]pyrimidin-5-yl)acetamide]	47.8	78.6	–	–	–	–	–	–	–	–	–
Cn1c(=O)c2c(CC(=O)Nc3ccn(-c4ccc(Br)cc4)n3)csc2n(C)c1=O [Example 40, N-[1-(4-Bromophenyl)-1H-pyrazol-3-yl]-2-(1,3-dimethyl-2,4-dioxo-1,2,3,4-tetrahydrothieno[2,3-d]pyrimidin-5-yl)acetamide]	99.9	100	–	–	< 50	–	–	–	–	–	–
Cn1c(=O)c2c(CC(=O)Nc3nnc(-c4ccc(Br)cc4)s3)csc2n(C)c1=O [Example 42, N-[5-(4-Bromophenyl)-1,3,4-thiadiazol-2-yl]-2-(1,3-dimethyl-2,4-dioxo-1,2,3,4-tetrahydrothieno[2,3-d]pyrimidin-5-yl)acetamide]	9.74	74.6	–	–	–	–	–	–	–	–	–
Cn1c(=O)c2c(CC(=O)Nc3nccc(-c4ccc(Br)cc4)n3)csc2n(C)c1=O [Example 43, N-[4-(4-Bromophenyl)pyrimidin-2-yl]-2-(1,3-dimethyl-2,4-dioxo-1,2,3,4-tetrahydrothieno[2,3-d]pyrimidin-5-yl)acetamide]	30.5	4.42	–	–	–	–	–	–	–	–	–
